Data: patent US9012611B2, “Use of 3,8,12,14, 17,20-oxo-substituted pregnene glycosides in the preparation of healthcare products, food additives and pharmaceuticals for the inhibition of appetite” (Institute of Materia Medica, Chinese Academy of Sciences, priority 2010, dated 2015)
Structures can show the parent of a compound that is named as a salt.

Assays:
[1] = tested on: female Wistar rat; experiment: Animal test in vivo: average food consumption (appetite inhibition); conditions: positive control 15 mg/kg
Protocol: (§1) 6-7 weeks-old female Wistar rat (purchased from Shanghai Laboratory Animal Center of Chinese Academy of Sciences)(weight: 110-150 g) was raised alone in suspended metal cage. After the experimental rat was obtained, it was checked to make sure whether they were abnormal or had obvious disease signs. The rat can freely obtain the drinking-water and feed for rodent (RM1(E)AQC). The feeding cage was controlled to receive 12 h illumination (from 07:00 to 19:00) and to be in a dark environment for 12 h, and the room temperature and relative humidity were controlled to be 21±3° C. and 55±15% respectively and not to deviate the upper and lower limit. The rats were randomly divided into groups depending on the body weight according to random number table to make the average weight in each group are approximately equal. Before the test, the rats were pre-trained suitably for one week (from −7th day to −1st day) during which the consumptions of feed and drinking water were recorded.
(§2) Each group of drug to be tested, positive control group, and blank control group consisted of 5 rats, respectively. The tested drug and positive control drug were mixed with wheaten starch before the administration and formulated to suspension with required doses according to 10 mL/kg of administration volume. The positive control drug was sibutramine hydrochloride and the administration dosage was 15 mg/kg body weight. In the blank control group, only equal amount of starch was used to formulate suspension for administration by […] in a same volume. The administration time is the 1st day, 2nd day and 3rd day. The body weight of the rat, the consumption of the feed (the weight of the feeding hopper) and consumption of the drinking water (bottle weight) were recorded from the −7th day to the 7th day.

[2] = Animal test in vivo: average body weight; set-up: species or system rat; conditions: positive control 15 mg/kg
Protocol: as §1, §2

Work on `CC(C)CC(N(C)C)C1(c2ccc(Cl)cc2)CCC1` (centres unmarked) [Positive control, sibutramine hydrochloride, reference compound] yielded an Average food consumptions ([1]; 1st day (administration day), Table 1, crude extract 300 mg/kg, others 50 mg/kg) of 5.0 g, an Average food consumptions ([1]; 1st day (administration day), Table 4, wilfosides 50 mg/kg) of 4 g and an Average food consumptions ([1]; 2nd day (administration day), Table 1, crude extract 300 mg/kg, others 50 mg/kg) of 8.5 g. For the same compound, the Average food consumptions ([1]; 2nd day (administration day), Table 4, wilfosides 50 mg/kg) was 7.6 g, the Average food consumptions ([1]; 3rd day (administration day), Table 1, crude extract 300 mg/kg, others 50 mg/kg) was 13.0 g and the Average food consumptions ([1]; 3rd day (administration day), Table 4, wilfosides 50 mg/kg) was 8.4 g. The Average food consumptions ([1]; 4th day (after administration on days 1-3), Table 1, crude extract 300 mg/kg, others 50 mg/kg) was 14.0 g, the Average food consumptions ([1]; 4th day (after administration on days 1-3), Table 4, wilfosides 50 mg/kg) was 10 g and the Average food consumptions ([1]; 5th day (after administration on days 1-3), Table 1, crude extract 300 mg/kg, others 50 mg/kg) was 13.5 g. It also gave an Average food consumptions ([1]; 5th day (after administration on days 1-3), Table 4, wilfosides 50 mg/kg) of 12.8 g, an Average food consumptions ([1]; 6th day (after administration on days 1-3), Table 1, crude extract 300 mg/kg, others 50 mg/kg) of 14.5 g and an Average food consumptions ([1]; 6th day (after administration on days 1-3), Table 4, wilfosides 50 mg/kg) of 14.4 g. The Average food consumptions ([1]; 7th day (after administration on days 1-3), Table 1, crude extract 300 mg/kg, others 50 mg/kg) was 17.5 g, the Average food consumptions ([1]; 7th day (after administration on days 1-3), Table 4, wilfosides 50 mg/kg) was 14.8 g and the Average food consumptions ([1]; −1st day (before administration), Table 1, crude extract 300 mg/kg, others 50 mg/kg) was 14.5 g. The Average food consumptions ([1]; −1st day (before administration), Table 4, wilfosides 50 mg/kg) was 13.2 g, the Average food consumptions ([1]; −2nd day (before administration), Table 1, crude extract 300 mg/kg, others 50 mg/kg) was 14.5 g and the Average food consumptions ([1]; −2nd day (before administration), Table 4, wilfosides 50 mg/kg) was 16 g. It also gave an Average food consumptions ([1]; −3rd day (before administration), Table 1, crude extract 300 mg/kg, others 50 mg/kg) of 15.5 g, an Average food consumptions ([1]; −3rd day (before administration), Table 4, wilfosides 50 mg/kg) of 12.8 g and an Average food consumptions ([1]; −4th day (before administration), Table 1, crude extract 300 mg/kg, others 50 mg/kg) of 14.5 g. It also gave an Average food consumptions ([1]; −4th day (before administration), Table 4, wilfosides 50 mg/kg) of 12.8 g, an Average food consumptions ([1]; −5th day (before administration), Table 1, crude extract 300 mg/kg, others 50 mg/kg) of 14.5 g and an Average food consumptions ([1]; −5th day (before administration), Table 4, wilfosides 50 mg/kg) of 14.8 g. The Average food consumptions ([1]; −6th day (before administration), Table 1, crude extract 300 mg/kg, others 50 mg/kg) was 15.3 g, the Average food consumptions ([1]; −6th day (before administration), Table 4, wilfosides 50 mg/kg) was 10.8 g and the Average food consumptions ([1]; −7th day (before administration), Table 1, crude extract 300 mg/kg, others 50 mg/kg) was 11.5 g. It also gave an Average food consumptions ([1]; −7th day (before administration), Table 4, wilfosides 50 mg/kg) of 10.4 g, an Average body weight ([2]; 1st day (administration day), Table 3, crude extract 300 mg/kg, others 50 mg/kg) of 142.4 g and an Average body weight ([2]; 1st day (administration day), Table 6, wilfosides 50 mg/kg) of 133.2 g. For the same compound, the Average body weight ([2]; 2nd day (administration day), Table 3, crude extract 300 mg/kg, others 50 mg/kg) was 140 g, the Average body weight ([2]; 2nd day (administration day), Table 6, wilfosides 50 mg/kg) was 128.4 g and the Average body weight ([2]; 3rd day (administration day), Table 3, crude extract 300 mg/kg, others 50 mg/kg) was 141.6 g. For the same compound, the Average body weight ([2]; 3rd day (administration day), Table 6, wilfosides 50 mg/kg) was 128.4 g, the Average body weight ([2]; 4th day (after administration on days 1-3), Table 3, crude extract 300 mg/kg, others 50 mg/kg) was 146.8 g and the Average body weight ([2]; 4th day (after administration on days 1-3), Table 6, wilfosides 50 mg/kg) was 132.4 g. For the same compound, the Average body weight ([2]; 5th day (after administration on days 1-3), Table 3, crude extract 300 mg/kg, others 50 mg/kg) was 148.4 g, the Average body weight ([2]; 5th day (after administration on days 1-3), Table 6, wilfosides 50 mg/kg) was 135.6 g and the Average body weight ([2]; 6th day (after administration on days 1-3), Table 3, crude extract 300 mg/kg, others 50 mg/kg) was 153.6 g. It also gave an Average body weight ([2]; 6th day (after administration on days 1-3), Table 6, wilfosides 50 mg/kg) of 138.4 g, an Average body weight ([2]; 7th day (after administration on days 1-3), Table 3, crude extract 300 mg/kg, others 50 mg/kg) of 158.8 g and an Average body weight ([2]; 7th day (after administration on days 1-3), Table 6, wilfosides 50 mg/kg) of 142 g. The Average body weight ([2]; −1st day (before administration), Table 3, crude extract 300 mg/kg, others 50 mg/kg) was 154.8 g, the Average body weight ([2]; −1st day (before administration), Table 6, wilfosides 50 mg/kg) was 145.6 g and the Average body weight ([2]; −2nd day (before administration), Table 3, crude extract 300 mg/kg, others 50 mg/kg) was 152.8 g. The Average body weight ([2]; −2nd day (before administration), Table 6, wilfosides 50 mg/kg) was 144.4 g, the Average body weight ([2]; −3rd day (before administration), Table 3, crude extract 300 mg/kg, others 50 mg/kg) was 152 g and the Average body weight ([2]; −3rd day (before administration), Table 6, wilfosides 50 mg/kg) was 140.8 g. For the same compound, the Average body weight ([2]; −4th day (before administration), Table 3, crude extract 300 mg/kg, others 50 mg/kg) was 149.6 g, the Average body weight ([2]; −4th day (before administration), Table 6, wilfosides 50 mg/kg) was 138 g and the Average body weight ([2]; −5th day (before administration), Table 3, crude extract 300 mg/kg, others 50 mg/kg) was 145.6 g. The Average body weight ([2]; −5th day (before administration), Table 6, wilfosides 50 mg/kg) was 135.6 g, the Average body weight ([2]; −6th day (before administration), Table 3, crude extract 300 mg/kg, others 50 mg/kg) was 144.8 g and the Average body weight ([2]; −6th day (before administration), Table 6, wilfosides 50 mg/kg) was 132.8 g. The Average body weight ([2]; −7th day (before administration), Table 3, crude extract 300 mg/kg, others 50 mg/kg) was 140.4 g and the Average body weight ([2]; −7th day (before administration), Table 6, wilfosides 50 mg/kg) was 132 g.
